What was measured:
[1] = target: Corticotropin-releasing factor receptor 2 (Mus musculus) (UniProt Q60748); assay: In vitro agonistic activity against mouse corticotropin releasing factor 2 receptor; format: functional
Mus musculus = species on record: Mus musculus; assay: Selectivity ratio of EC50s for mouse corticotropin releasing factor receptors 1 and 2
[2] = target: T1, Corticotropin-releasing factor receptor 1 (Mus musculus) (UniProt P35347); assay: In vitro agonistic activity against mouse corticotropin releasing factor 1 receptor; format: functional
T1 sequence (whole entry): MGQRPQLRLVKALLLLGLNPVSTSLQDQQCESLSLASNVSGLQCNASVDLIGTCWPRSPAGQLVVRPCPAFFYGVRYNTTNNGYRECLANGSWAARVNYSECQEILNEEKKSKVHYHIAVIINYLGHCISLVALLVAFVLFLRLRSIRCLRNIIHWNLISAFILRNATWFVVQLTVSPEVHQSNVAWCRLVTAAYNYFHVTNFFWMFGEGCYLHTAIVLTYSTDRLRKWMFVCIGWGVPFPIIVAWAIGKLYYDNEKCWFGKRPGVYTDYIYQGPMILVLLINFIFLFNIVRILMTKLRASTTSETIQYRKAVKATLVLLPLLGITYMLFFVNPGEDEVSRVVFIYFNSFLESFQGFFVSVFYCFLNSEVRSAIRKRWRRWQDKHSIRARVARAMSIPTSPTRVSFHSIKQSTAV

[3] = target: T2, Corticotropin-releasing factor receptor 1 (Mus musculus, UniProt P35347); assay: In vitro effective concentration for mouse corticotropin releasing factor 1 receptor
T2 sequence (P35347 whole entry): T1 sequence (whole entry)

[4] = target: Corticotropin-releasing factor receptor 2 (Mus musculus, UniProt Q60748); assay: In vitro effective concentration for mouse corticotropin releasing factor 2 receptor
Sequence of Corticotropin-releasing factor receptor 2 (Q60748 whole entry): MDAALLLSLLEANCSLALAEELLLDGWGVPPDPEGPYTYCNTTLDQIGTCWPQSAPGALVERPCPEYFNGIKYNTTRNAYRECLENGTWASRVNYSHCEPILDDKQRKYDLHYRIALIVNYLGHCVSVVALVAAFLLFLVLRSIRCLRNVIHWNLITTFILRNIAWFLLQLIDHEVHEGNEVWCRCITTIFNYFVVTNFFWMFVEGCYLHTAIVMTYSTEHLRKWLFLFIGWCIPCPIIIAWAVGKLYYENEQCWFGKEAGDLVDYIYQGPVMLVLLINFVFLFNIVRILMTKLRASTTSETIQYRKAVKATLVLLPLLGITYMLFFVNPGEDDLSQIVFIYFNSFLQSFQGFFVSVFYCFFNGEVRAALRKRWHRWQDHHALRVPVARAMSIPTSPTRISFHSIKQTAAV

Sequence of Corticotropin-releasing factor receptor 2 (Mus musculus) (Q60748 whole entry): as above

Compound | Emax [1] | Selectivity (Mus musculus) | Emax [2] | EC50 [3] | EC50 [4]
CC[C@H](C)[C@H](NC(=O)[C@@H](NC(=O)[C@H](CC(=O)O)NC(=O)[C@H](CC(C)C)NC(=O)[C@H](CC(C)C)NC(=O)[C@H](CC(C)C)NC(=O)[C@H](CCCN=C(N)N)NC(=O)[C@H](CC(N)=O)NC(=O)[C@H](CC(N)=O)NC(=O)[C@H](C)NC(=O)[C@H](C)NC(=O)[C@H](CCC(N)=O)NC(=O)[C@H](CCC(N)=O)NC(=O)[C@H](CCCCN)NC(=O)[C@H](CCC(=O)O)NC(=O)[C@H](CCCCN)NC(=O)[C@H](CCC(=O)O)NC(=O)[C@H](CCC(N)=O)NC(=O)[C@H](CCCCN)NC(=O)[C@H](CCC(=O)O)NC(=O)[C@@H](NC(=O)[C@H](CCC(=O)O)NC(=O)[C@@H](NC(=O)[C@H](CCSC)NC(=O)[C@H](CCCCN)NC(=O)[C@H](CCCN=C(N)N)NC(=O)[C@H](CC(C)C)NC(=O)[C@H](CC(C)C)NC(=O)[C@@H](NC(=O)[C@@H](NC(=O)[C@@H]1CCCN1C(=O)[C@H](CC(C)C)NC(=O)[C@H](CC(=O)O)NC(=O)[C@@H](NC(=O)[C@H](CO)NC(=O)[C@@H](NC(=O)[C@@H]1CCCN1C(=O)[C@@H]1CCCN1C(=O)CNC(=O)[C@@H]1CCC(=O)N1)[C@@H](C)CC)[C@@H](C)CC)[C@@H](C)O)[C@@H](C)CC)[C@@H](C)CC)[C@@H](C)CC)[C@@H](C)O)C(=O)O | 94% | > 52 | 42% | > 1000 nM | 19.1 nM
CC[C@H](C)[C@H](NC(=O)[C@@H](NC(=O)[C@H](CC(=O)O)NC(=O)[C@H](CC(C)C)NC(=O)[C@H](CC(C)C)NC(=O)[C@H](CC(C)C)NC(=O)[C@H](CCCN=C(N)N)NC(=O)[C@H](CC(N)=O)NC(=O)[C@H](CC(N)=O)NC(=O)[C@H](C)NC(=O)[C@H](C)NC(=O)[C@H](CCC(N)=O)NC(=O)[C@H](CCC(N)=O)NC(=O)[C@H](CCCCN)NC(=O)[C@H](CCC(=O)O)NC(=O)[C@H](CCCCN)NC(=O)[C@H](CCC(=O)O)NC(=O)[C@H](CCC(N)=O)NC(=O)[C@H](CCCCN)NC(=O)[C@H](CCC(=O)O)NC(=O)[C@@H](NC(=O)[C@H](CCC(=O)O)NC(=O)[C@@H](NC(=O)[C@H](CCSC)NC(=O)[C@H](CCCCN)NC(=O)[C@H](CCCN=C(N)N)NC(=O)[C@H](CC(C)C)NC(=O)[C@H](CC(C)C)NC(=O)[C@H](Cc1c[nH]c2ccccc12)NC(=O)[C@H](CCC(N)=O)NC(=O)[C@@H]1CCCN1C(=O)[C@H](CC(C)C)NC(=O)[C@H](CC(=O)O)NC(=O)[C@@H](NC(=O)[C@H](CO)NC(=O)[C@@H](NC(=O)[C@@H]1CCCN1C(=O)[C@@H]1CCCN1C(=O)CNC(=O)[C@@H]1CCC(=O)N1)[C@@H](C)CC)[C@@H](C)CC)[C@@H](C)CC)[C@@H](C)CC)[C@@H](C)O)C(=O)O | 99% | > 46 | 78% | > 1000 nM | 21.7 nM
CC[C@H](C)[C@H](NC(=O)[C@@H](NC(=O)[C@H](CC(=O)O)NC(=O)[C@H](CC(C)C)NC(=O)[C@H](CC(C)C)NC(=O)[C@H](CC(C)C)NC(=O)[C@H](CCCN=C(N)N)NC(=O)[C@H](CC(N)=O)NC(=O)[C@H](CC(N)=O)NC(=O)[C@H](C)NC(=O)[C@H](C)NC(=O)[C@H](CCC(N)=O)NC(=O)[C@H](CCC(N)=O)NC(=O)[C@H](CCCCN)NC(=O)[C@H](CCC(=O)O)NC(=O)[C@H](CCCCN)NC(=O)[C@H](CCC(=O)O)NC(=O)[C@H](CCC(N)=O)NC(=O)[C@H](CCCCN)NC(=O)[C@H](CCC(=O)O)NC(=O)[C@@H](NC(=O)[C@H](CCC(=O)O)NC(=O)[C@@H](NC(=O)[C@H](CCSC)NC(=O)[C@H](CCCCN)NC(=O)[C@H](CCCN=C(N)N)NC(=O)[C@H](CC(C)C)NC(=O)[C@H](CC(C)C)NC(=O)[C@H](CCC(N)=O)NC(=O)[C@@H](NC(=O)[C@@H]1CCCN1C(=O)[C@H](CC(C)C)NC(=O)[C@H](CC(=O)O)NC(=O)[C@@H](NC(=O)[C@H](CO)NC(=O)[C@@H](NC(=O)[C@@H]1CCCN1C(=O)[C@@H]1CCCN1C(=O)CNC(=O)[C@@H]1CCC(=O)N1)[C@@H](C)CC)[C@@H](C)CC)[C@@H](C)CC)[C@@H](C)CC)[C@@H](C)CC)[C@@H](C)O)C(=O)O | 78% | > 41 | 6% | > 1000 nM | 24.6 nM

The next compounds have a lower EC50 [3] than those just listed; values first:

Emax [1] | Selectivity (Mus musculus) | Emax [2] | EC50 [3] | EC50 [4] | Compound
100% | 21 | 99% | 189 nM | 8.8 nM | CC[C@H](C)[C@H](NC(=O)[C@@H](NC(=O)[C@H](CC(=O)O)NC(=O)[C@H](CC(C)C)NC(=O)[C@H](CC(C)C)NC(=O)[C@H](CC(C)C)NC(=O)[C@H](CCCN=C(N)N)NC(=O)[C@H](CC(N)=O)NC(=O)[C@H](CC(N)=O)NC(=O)[C@H](C)NC(=O)[C@H](C)NC(=O)[C@H](CCC(N)=O)NC(=O)[C@H](CCC(N)=O)NC(=O)[C@H](CCCCN)NC(=O)[C@H](CCC(=O)O)NC(=O)[C@H](CCCCN)NC(=O)[C@H](CCC(=O)O)NC(=O)[C@H](CCC(N)=O)NC(=O)[C@H](CCCCN)NC(=O)[C@H](CCC(=O)O)NC(=O)[C@@H](NC(=O)[C@H](CCC(=O)O)NC(=O)[C@@H](NC(=O)[C@H](CCSC)NC(=O)[C@H](CCCCN)NC(=O)[C@H](CCCN=C(N)N)NC(=O)[C@H](CC(C)C)NC(=O)[C@H](CC(C)C)NC(=O)[C@@H](NC(=O)[C@H](Cc1ccc(O)cc1)NC(=O)[C@@H]1CCCN1C(=O)[C@H](CC(C)C)NC(=O)[C@H](CC(=O)O)NC(=O)[C@@H](NC(=O)[C@H](CO)NC(=O)[C@@H](NC(=O)[C@@H]1CCCN1C(=O)[C@@H]1CCCN1C(=O)CNC(=O)[C@@H]1CCC(=O)N1)[C@@H](C)CC)[C@@H](C)CC)[C@@H](C)O)[C@@H](C)CC)[C@@H](C)CC)[C@@H](C)O)C(=O)O
96% | 20 | 100% | 98.4 nM | 4.8 nM | CC[C@H](C)[C@H](NC(=O)[C@@H](NC(=O)[C@H](CC(=O)O)NC(=O)[C@H](CC(C)C)NC(=O)[C@H](CC(C)C)NC(=O)[C@H](CC(C)C)NC(=O)[C@H](CCCN=C(N)N)NC(=O)[C@H](CC(N)=O)NC(=O)[C@H](CC(N)=O)NC(=O)[C@H](C)NC(=O)[C@H](C)NC(=O)[C@H](CCC(N)=O)NC(=O)[C@H](CCC(N)=O)NC(=O)[C@H](CCCCN)NC(=O)[C@H](CCC(=O)O)NC(=O)[C@H](CCCCN)NC(=O)[C@H](CCC(=O)O)NC(=O)[C@H](CCC(N)=O)NC(=O)[C@H](CCCCN)NC(=O)[C@H](CCC(=O)O)NC(=O)[C@@H](NC(=O)[C@H](CCC(=O)O)NC(=O)[C@@H](NC(=O)[C@H](CCSC)NC(=O)[C@H](CCCCN)NC(=O)[C@H](CCCN=C(N)N)NC(=O)[C@H](CC(C)C)NC(=O)[C@H](CC(C)C)NC(=O)[C@H](Cc1c[nH]c2ccccc12)NC(=O)[C@H](CC(C)C)NC(=O)[C@@H]1CCCN1C(=O)[C@H](CC(C)C)NC(=O)[C@H](CC(=O)O)NC(=O)[C@@H](NC(=O)[C@H](CO)NC(=O)[C@@H](NC(=O)[C@@H]1CCCN1C(=O)[C@@H]1CCCN1C(=O)CNC(=O)[C@@H]1CCC(=O)N1)[C@@H](C)CC)[C@@H](C)CC)[C@@H](C)CC)[C@@H](C)CC)[C@@H](C)O)C(=O)O
95% | 20 | 100% | 94.6 nM | 4.7 nM | CC[C@H](C)[C@H](NC(=O)[C@@H](NC(=O)[C@H](CC(=O)O)NC(=O)[C@H](CC(C)C)NC(=O)[C@H](CC(C)C)NC(=O)[C@H](CC(C)C)NC(=O)[C@H](CCCN=C(N)N)NC(=O)[C@H](CC(N)=O)NC(=O)[C@H](CC(N)=O)NC(=O)[C@H](C)NC(=O)[C@H](C)NC(=O)[C@H](CCC(N)=O)NC(=O)[C@H](CCC(N)=O)NC(=O)[C@H](CCCCN)NC(=O)[C@H](CCC(=O)O)NC(=O)[C@H](CCCCN)NC(=O)[C@H](CCC(=O)O)NC(=O)[C@H](CCC(N)=O)NC(=O)[C@H](CCCCN)NC(=O)[C@H](CCC(=O)O)NC(=O)[C@@H](NC(=O)[C@H](CCC(=O)O)NC(=O)[C@@H](NC(=O)[C@H](CCSC)NC(=O)[C@H](CCCCN)NC(=O)[C@H](CCCN=C(N)N)NC(=O)[C@H](CC(C)C)NC(=O)[C@H](CC(C)C)NC(=O)[C@H](Cc1c[nH]c2ccccc12)NC(=O)[C@H](Cc1ccccc1)NC(=O)[C@@H]1CCCN1C(=O)[C@H](CC(C)C)NC(=O)[C@H](CC(=O)O)NC(=O)[C@@H](NC(=O)[C@H](CO)NC(=O)[C@@H](NC(=O)[C@@H]1CCCN1C(=O)[C@@H]1CCCN1C(=O)CNC(=O)[C@@H]1CCC(=O)N1)[C@@H](C)CC)[C@@H](C)CC)[C@@H](C)CC)[C@@H](C)CC)[C@@H](C)O)C(=O)O
88% | 13 | 81% | 64.9 nM | 5.6 nM | CC[C@H](C)[C@H](NC(=O)[C@@H](NC(=O)[C@H](CC(=O)O)NC(=O)[C@H](CC(C)C)NC(=O)[C@H](CC(C)C)NC(=O)[C@H](CC(C)C)NC(=O)[C@H](CCCN=C(N)N)NC(=O)[C@H](CC(N)=O)NC(=O)[C@H](CC(N)=O)NC(=O)[C@H](C)NC(=O)[C@H](C)NC(=O)[C@H](CCC(N)=O)NC(=O)[C@H](CCC(N)=O)NC(=O)[C@H](CCCCN)NC(=O)[C@H](CCC(=O)O)NC(=O)[C@H](CCCCN)NC(=O)[C@H](CCC(=O)O)NC(=O)[C@H](CCC(N)=O)NC(=O)[C@H](CCCCN)NC(=O)[C@H](CCC(=O)O)NC(=O)[C@@H](NC(=O)[C@H](CCC(=O)O)NC(=O)[C@@H](NC(=O)[C@H](CCSC)NC(=O)[C@H](CCCCN)NC(=O)[C@H](CCCN=C(N)N)NC(=O)[C@H](CC(C)C)NC(=O)[C@H](CC(C)C)NC(=O)[C@H](Cc1c[nH]cn1)NC(=O)[C@H](Cc1ccc(O)cc1)NC(=O)[C@@H]1CCCN1C(=O)[C@H](CC(C)C)NC(=O)[C@H](CC(=O)O)NC(=O)[C@@H](NC(=O)[C@H](CO)NC(=O)[C@@H](NC(=O)[C@@H]1CCCN1C(=O)[C@@H]1CCCN1C(=O)CNC(=O)[C@@H]1CCC(=O)N1)[C@@H](C)CC)[C@@H](C)CC)[C@@H](C)CC)[C@@H](C)CC)[C@@H](C)O)C(=O)O
